Source: patent US9242981B2, “Fused pyrazole derivatives as novel ERK inhibitors” (Merck Sharp & Dohme Corp., priority 2010, dated 2016)

Biological target: Mouse ERK2 protein (Mus musculus (Mouse), UniProt P63085)
Test: Coupled MEK1/ERK2 IMAP assay or Active ERK2 IMAP assay
Type: biochemical
Conditions: Table 1, class symbols, 30 μM ATP

Chain of Mouse ERK2 protein (P63085 whole entry): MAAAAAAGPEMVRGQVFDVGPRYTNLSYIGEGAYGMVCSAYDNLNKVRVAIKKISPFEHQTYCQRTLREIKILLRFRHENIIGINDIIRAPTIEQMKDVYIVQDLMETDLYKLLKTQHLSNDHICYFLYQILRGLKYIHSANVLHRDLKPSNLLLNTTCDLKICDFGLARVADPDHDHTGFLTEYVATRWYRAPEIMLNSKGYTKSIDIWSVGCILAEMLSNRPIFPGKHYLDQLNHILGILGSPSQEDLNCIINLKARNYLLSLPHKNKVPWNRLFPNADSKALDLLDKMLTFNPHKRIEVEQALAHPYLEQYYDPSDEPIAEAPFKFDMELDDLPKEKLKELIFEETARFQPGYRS

Row | Compound | IC50
1 | COc1cccc(F)c1CN1CCC(F)C(NC(=O)N2CCc3[nH]nc(-c4ccnc(C)c4)c3C2)C1 (stereo not drawn) [Compound 135, N-[4-fluoro-1-[(2-fluoro-6-methoxyphenyl)methyl]-3-piperidinyl]-1,4,6,7-tetrahydro-3-(2-methyl-4-pyridinyl)-5H-pyrazolo[4,3-c]pyridine-5-carboxamide] | < 20 nM
2 | O=C(N[C@@H]1CCCN(Cc2csc3ccccc23)C1)N1CCc2[nH]nc(-c3ccc(-c4ccccc4)nc3)c2C1 [Compound 136, N-[1-(benzo[b]thien-3-ylmethyl)-3(R)-piperidinyl]-1,4,6,7-tetrahydro-3-(6-phenyl-3-pyridinyl)-5H-pyrazolo[4,3-c]pyridine-5-carboxamide] | 101 to 1000 nM
3 | Cc1cccc(C)c1CN1CC[C@@H](NC(=O)N2CCc3[nH]nc(-c4ccc(-c5ccccc5)nc4)c3C2)C1 [Compound 139, N-[1-[(2,6-dimethylphenyl)-methyl]-3(R)-pyrrolidinyl]-1,4,6,7-tetrahydro-3-(6-phenyl-3-pyridinyl)-5H-pyrazolo[4,3-c]pyridine-5-carboxamide] | 101 to 1000 nM
4 | Cc1nc2cc(-c3n[nH]c4c3CN(C(=O)N[C@@H]3CCCN(Cc5ccnc6ccccc56)C3)CC4)ccc2o1 [Compound 144, 1,4,6,7-tetrahydro-3-(2-methyl-5-benzoxazolyl)-N-[1-(4-quinolinylmethyl)-3(R)-piperidinyl]-5H-pyrazolo[4,3-c]pyridine-5-carboxamide] | 101 to 1000 nM
5 | Cc1nc2cc(-c3n[nH]c4c3CN(C(=O)N[C@@H]3CCCN(Cc5cccc6ncccc56)C3)CC4)ccc2o1 [Compound 146, 1,4,6,7-tetrahydro-3-(2-methyl-5-benzoxazolyl)-N-[1-(5-quinolinylmethyl)-3(R)-piperidinyl]-5H-pyrazolo[4,3-c]pyridine-5-carboxamide] | 21 to 100 nM
6 | COc1cccc(F)c1CN1CCC(F)C(NC(=O)N2CCc3[nH]nc(-c4ccc5nccn5c4)c3C2)C1 (stereo not drawn) [Compound 150, N-[4-fluoro-1-[(2-fluoro-6-methoxyphenyl)methyl]-3-piperidinyl]-1,4,6,7-tetrahydro-3-imidazo[1,2-a]pyridin-6-yl-5H-pyrazolo[4,3-c]pyridine-5-carboxamide] | < 20 nM
7 | Cc1nc2cc(-c3n[nH]c4c3CN(C(=O)N[C@@H]3CCCN(Cc5ccc6ccccc6c5)C3)CC4)ccc2o1 [Compound 154, 1,4,6,7-tetrahydro-3-(2-methyl-5-benzoxazolyl)-N-[1-(2-naphthalenylmethyl)-3(R)-piperidinyl]-5H-pyrazolo[4,3-c]pyridine-5-carboxamide] | < 20 nM
8 | COc1cccc(F)c1CN1[C@H]2CC[C@H](NC(=O)N3CCc4[nH]nc(-c5ccnc(C)c5)c4C3)[C@@H]1CC2 [Compound 160, N-[endo-8-[(2-fluoro-6-methoxyphenyl)methyl]-8-azabicyclo[3.2.1]oct-2-yl]-1,4,6,7-tetrahydro-3-(2-methyl-4-pyridinyl)-5H-pyrazolo[4,3-c]pyridine-5-carboxamide] | 101 to 1000 nM
9 | COc1cccc(F)c1CN1[C@H]2CC[C@@H](NC(=O)N3CCc4[nH]nc(-c5ccnc(C)c5)c4C3)[C@@H]1CC2 [Compound 162, N-[exo-8-[(2-fluoro-6-methoxyphenyl)methyl]-8-azabicyclo[3.2.1]oct-2-yl]-1,4,6,7-tetrahydro-3-(2-methyl-4-pyridinyl)-5H-pyrazolo[4,3-c]pyridine-5-carboxamide] | 21 to 100 nM
10 | Cc1cc(-c2n[nH]c3c2CN(C(=O)N[C@H]2CC[C@H]4CC[C@@H]2N4Cc2c(F)cccc2F)CC3)ccn1 [Compound 164, N-[endo-8-[(2,6-difluorophenyl)methyl]-8-azabicyclo[3.2.1]oct-2-yl]-1,4,6,7-tetrahydro-3-(2-methyl-4-pyridinyl)-5H-pyrazolo[4,3-c]pyridine-5-carboxamide] | 101 to 1000 nM
11 | Cc1cc(-c2n[nH]c3c2CN(C(=O)N[C@H]2CC[C@H]4CC[C@@H]2N4Cc2ccccc2F)CC3)ccn1 [Compound 166, N-[endo-8-[(2-fluorophenyl)methyl]-8-azabicyclo[3.2.1]oct-2-yl]-1,4,6,7-tetrahydro-3-(2-methyl-4-pyridinyl)-5H-pyrazolo[4,3-c]pyridine-5-carboxamide] | 101 to 1000 nM
12 | Cc1cc(-c2n[nH]c3c2CN(C(=O)N[C@@H]2CC[C@H]4CC[C@@H]2N4Cc2ccccc2F)CC3)ccn1 [Compound 168, N-[exo-8-[(2-fluorophenyl)methyl]-8-azabicyclo[3.2.1]oct-2-yl]-1,4,6,7-tetrahydro-3-(2-methyl-4-pyridinyl)-5H-pyrazolo[4,3-c]pyridine-5-carboxamide] | < 20 nM
13 | O=C(N[C@@H]1CCCN(CCc2ccccc2)C1)N1CCc2[nH]nc(-c3ccncc3)c2C1 [Compound 173, 1,4,6,7-tetrahydro-N-[1-(2-phenylethyl)-3(R)-piperidinyl]-3-(4-pyridinyl)-5H-pyrazolo[4,3-c]pyridine-5-carboxamide] | 21 to 100 nM
14 | O=C(N[C@@H]1CCCN(Cc2ccccc2)C1)N1CCc2[nH]nc(-c3ccc4c(c3)CCO4)c2C1 [Compound 177, 3-(2,3-dihydro-5-benzofuranyl)-1,4,6,7-tetrahydro-N-[1-(phenylmethyl)-3(R)-piperidinyl]-5H-pyrazolo[4,3-c]pyridine-5-carboxamide] | < 20 nM

Now from value to compound:

Row | IC50 | Compound
15 | 21 to 100 nM | Cn1ncc2cc(-c3n[nH]c4c3CN(C(=O)N[C@@H]3CCCN(Cc5c(F)cccc5F)C3)CC4)ccc21 [Compound 134, N-[1-[(2,6-difluorophenyl)-methyl]-3(R)-piperidinyl]-1,4,6,7-tetrahydro-3-(1-methyl-1H-indazol-5-yl)-5H-pyrazolo[4,3-c]pyridine-5-carboxamide]
16 | 101 to 1000 nM | O=C(N[C@@H]1CCCN(Cc2c(F)cccc2F)C1)N1CCc2[nH]nc(-c3ccc(-c4ccccc4)nc3)c2C1 [Compound 137, N-[1-[(2,6-difluorophenyl)-methyl]-3(R)-piperidinyl]-1,4,6,7-tetrahydro-3-(6-phenyl-3-pyridinyl)-5H-pyrazolo[4,3-c]pyridine-5-carboxamide]
17 | 101 to 1000 nM | COc1cccc(F)c1CN1CCC[C@@H](NC(=O)N2CCc3[nH]nc(-c4ccc(-c5ccccc5)nc4)c3C2)C1 [Compound 138, N-[1-[(2-fluoro-6-methoxyphenyl)methyl]-3(R)-piperidinyl]-1,4,6,7-tetrahydro-3-(6-phenyl-3-pyridinyl)-5H-pyrazolo[4,3-c]pyridine-5-carboxamide]
18 | < 20 nM | Cn1ncc2cc(-c3n[nH]c4c3CN(C(=O)NC3CCC5CCC3N5Cc3ccccc3F)CC4)ccc21 (stereo not drawn) [Compound 140, N-[8-[(2-fluorophenyl)methyl]-8-azabicyclo[3.2.1]oct-2-yl]-1,4,6,7-tetrahydro-3-(1-methyl-1H-indazol-5-yl)-5H-pyrazolo[4,3-c]pyridine-5-carboxamide]
19 | 101 to 1000 nM | Cc1nc2cc(-c3n[nH]c4c3CN(C(=O)N[C@@H]3CCCN(Cc5cccc6cnccc56)C3)CC4)ccc2o1 [Compound 142, 1,4,6,7-tetrahydro-N-[1-(5-isoquinolinylmethyl)-3(R)-pipendinyl]-3-(2-methyl-5-benzoxazolyl)-5H-pyrazolo[4,3-c]pyridine-5-carboxamide]
20 | 21 to 100 nM | Cc1nc2cc(-c3n[nH]c4c3CN(C(=O)N[C@@H]3CCCN(Cc5cn(C)c6ccccc56)C3)CC4)ccc2o1 [Compound 148, 1,4,6,7-tetrahydro-3-(2-methyl-5-benzoxazolyl)-N-[1-[(1-methyl-1H-indol-3-yl)methyl]-3(R)-piperidinyl]-5H-pyrazolo[4,3-c]pyridine-5-carboxamide]
21 | < 20 nM | Cc1nc2cc(-c3n[nH]c4c3CN(C(=O)N[C@@H]3CCCN(Cc5csc6ccccc56)C3)CC4)ccc2o1 [Compound 152, N-[1-(benzo[b]thien-3-ylmethyl)-3(R)-piperidinyl]-1,4,6,7-tetrahydro-3-(2-methyl-5-benzoxazolyl)-5H-pyrazolo[4,3-c]pyridine-5-carboxamide]
22 | < 20 nM | COc1cccc(F)c1CN1CCC[C@@H](NC(=O)N2CCc3[nH]nc(-c4ccc5nc(C)sc5c4)c3C2)C1 [Compound 170, N-[1-[(2-fluoro-6-methoxyphenyl)methyl]-3(R)-piperidinyl]-1,4,6,7-tetrahydro-3-(2-methyl-6-benzothiazolyl)-5H-pyrazolo[4,3-c]pyridine-5-carboxamide]
23 | < 20 nM | Cc1nc2ccc(-c3n[nH]c4c3CN(C(=O)N[C@@H]3CCCN(Cc5c(F)cccc5F)C3)CC4)cc2s1 [Compound 172, N-[1-[(2,6-difluorophenyl)methyl]-3(R)-piperidinyl]-1,4,6,7-tetrahydro-3-(2-methyl-6-benzothiazolyl)-5H-pyrazolo[4,3-c]pyridine-5-carboxamide]
24 | < 20 nM | Cc1nc2ccc(-c3n[nH]c4c3CN(C(=O)N[C@@H]3CCCN(Cc5csc6ccccc56)C3)CC4)cc2s1 [Compound 174, N-[1-(benzo[b]thien-3-ylmethyl)-3(R)-piperidinyl]-1,4,6,7-tetrahydro-3-(2-methyl-6-benzothiazolyl)-5H-pyrazolo[4,3-c]pyridine-5-carboxamide]
25 | < 20 nM | Cc1nc2ccc(-c3n[nH]c4c3CN(C(=O)N[C@@H]3CCCN(Cc5coc6ccccc56)C3)CC4)cc2s1 [Compound 176, N-[1-(3-benzofuranylmethyl)-3(R)-piperidinyl]-1,4,6,7-tetrahydro-3-(2-methyl-6-benzothiazolyl)-5H-pyrazolo[4,3-c]pyridine-5-carboxamide]
26 | < 20 nM | Cc1cc(-c2n[nH]c3c2CN(C(=O)N[C@@H]2CC[C@H]4CC[C@@H]2N4Cc2c(F)cccc2F)CC3)ccn1 [Compound 178, N-[exo-8-[(2,6-difluorophenyl)methyl]-8-azabicyclo[3.2.1]oct-2-yl]-1,4,6,7-tetrahydro-3-(2-methyl-4-pyridinyl)-5H-pyrazolo[4,3-c]pyridine-5-carboxamide]
27 | 21 to 100 nM | O=C(N[C@@H]1CCCN(Cc2c(F)cccc2F)C1)N1CCc2[nH]nc(-c3ccc4c(c3)CCO4)c2C1 [Compound 179, N[1-[(2,6-difluorophenyl)methyl]-3(R)-piperidinyl]-3-(2,3-dihydro-5-benzofuranyl)-1,4,6,7-tetrahydro-5H-pyrazolo[4,3-c]pyridine-5-carboxamide]
